From patent US5807535A, “Metal complexes of hydroxyaryl containing aminocarboxylic acid chelating agents” (Australian Nuclear Science & Technology Organisation, priority 1992, dated 1998)
Read-outs that look alike come from different tables or passages of the source.

Experiment: Biodistribution of 99mTc complexes in rats
Type: in vivo, Australian Albino Wistar Rats
Conditions: rat, rats; for tissue uptake at 0.5 min: 30 sec; for tissue uptake at 0.05 h: 3 min
Procedure: A typical method of radiolabelling of the chelator was achieved by dissolving the chelator in a basic solution of saline. The pH was then adjusted to approx. 6 with HCl. Excess stannous chloride was added to the resultant solution followed by one equivalent volume of sodium ^99m TcO4 (10-50 mCi/ml). Final concentration of the chelator was approx. 1 mg/ml. The efficacy of labelling was determined by ITLC-SG. For each product only one main radiochemical species was observed. Each complex was diluted to 15 μCi/100 μl with saline. […] (See FIGS. 1A and 1B).
Selected data from biodistribution results of technetium-99m complexes of No. 1, No. 2 and No 4 in the liver, kidney and blood at 3 minutes is tabulated below.

[1] = blood, read-out: biodistribution blood
[2] = bone, read-out: biodistribution bone
[3] = brain, read-out: biodistribution brain
[4] = eyes, read-out: biodistribution eyes
[5] = heart, read-out: biodistribution heart
[6] = kidneys, read-out: biodistribution kidneys
[7] = liver, read-out: biodistribution liver
[8] = lungs, read-out: biodistribution lungs
[9] = muscle, read-out: biodistribution muscle
[10] = pancreas, read-out: biodistribution pancreas
[11] = skin, read-out: biodistribution skin
[12] = spleen, read-out: biodistribution spleen
[13] = tail, read-out: biodistribution tail
[14] = thymus, read-out: biodistribution thymus
[15] = thyroid, read-out: biodistribution thyroid

For `O=C(O)CN(CCN(CC(=O)O)CC(=O)Nc1cc([N+](=O)[O-])ccc1O)CC(=O)Nc1cc([N+](=O)[O-])ccc1O` [Compound 3], the tissue uptake at 0.5 min [1] was 2.1 %ID/g, the tissue uptake at 1 min [1] was 1.83 %ID/g and the tissue uptake at 0.05 h [1] was 1.37 %ID/g. For the same molecule, the tissue uptake at 5 min [1] was 1.17 %ID/g, the tissue uptake at 10 min [1] was 0.86 %ID/g and the tissue uptake at 0.5 min [2] was 0.3 %ID/g. It also gave a tissue uptake at 1 min [2] of 0.29 %ID/g, a tissue uptake at 0.05 h [2] of 0.3 %ID/g and a tissue uptake at 5 min [2] of 0.29 %ID/g. The tissue uptake at 10 min [2] was 0.22 %ID/g, the tissue uptake at 0.5 min [3] was 0.18 %ID/g and the tissue uptake at 1 min [3] was 0.14 %ID/g. It also gave a tissue uptake at 0.05 h [3] of 0.09 %ID/g, a tissue uptake at 5 min [3] of 0.08 %ID/g and a tissue uptake at 10 min [3] of 0.05 %ID/g. For the same molecule, the tissue uptake at 0.5 min [4] was 0.2 %ID/g, the tissue uptake at 1 min [4] was 0.23 %ID/g and the tissue uptake at 0.05 h [4] was 0.23 %ID/g. The tissue uptake at 5 min [4] was 0.17 %ID/g, the tissue uptake at 10 min [4] was 0.18 %ID/g and the tissue uptake at 0.5 min [5] was 0.78 %ID/g. The tissue uptake at 1 min [5] was 0.65 %ID/g, the tissue uptake at 0.05 h [5] was 0.55 %ID/g and the tissue uptake at 5 min [5] was 0.45 %ID/g. For the same molecule, the tissue uptake at 10 min [5] was 0.34 %ID/g, the tissue uptake at 0.5 min [6] was 3.92 %ID/g and the tissue uptake at 1 min [6] was 4.63 %ID/g. It also gave a tissue uptake at 0.05 h [6] of 4.27 %ID/g, a tissue uptake at 5 min [6] of 3 %ID/g and a tissue uptake at 10 min [6] of 2.1 %ID/g. It also gave a tissue uptake at 0.5 min [7] of 1.43 %ID/g, a tissue uptake at 1 min [7] of 1.61 %ID/g and a tissue uptake at 0.05 h [7] of 1.61 %ID/g. For the same molecule, the tissue uptake at 5 min [7] was 1.24 %ID/g, the tissue uptake at 10 min [7] was 0.92 %ID/g and the tissue uptake at 0.5 min [8] was 1.24 %ID/g. It also gave a tissue uptake at 1 min [8] of 1.04 %ID/g, a tissue uptake at 0.05 h [8] of 0.87 %ID/g and a tissue uptake at 5 min [8] of 0.72 %ID/g. It also gave a tissue uptake at 10 min [8] of 0.57 %ID/g, a tissue uptake at 0.5 min [9] of 0.26 %ID/g and a tissue uptake at 1 min [9] of 0.24 %ID/g. It also gave a tissue uptake at 0.05 h [9] of 0.23 %ID/g, a tissue uptake at 5 min [9] of 0.21 %ID/g and a tissue uptake at 10 min [9] of 0.22 %ID/g. It also gave a tissue uptake at 0.5 min [10] of 0.47 %ID/g, a tissue uptake at 1 min [10] of 0.41 %ID/g and a tissue uptake at 0.05 h [10] of 0.38 %ID/g. For the same molecule, the tissue uptake at 5 min [10] was 0.42 %ID/g, the tissue uptake at 10 min [10] was 0.21 %ID/g and the tissue uptake at 0.5 min [11] was 0.49 %ID/g. For the same molecule, the tissue uptake at 1 min [11] was 0.43 %ID/g, the tissue uptake at 0.05 h [11] was 0.58 %ID/g and the tissue uptake at 5 min [11] was 0.64 %ID/g. For the same molecule, the tissue uptake at 10 min [11] was 0.63 %ID/g, the tissue uptake at 0.5 min [12] was 0.49 %ID/g and the tissue uptake at 1 min [12] was 0.42 %ID/g. For the same molecule, the tissue uptake at 0.05 h [12] was 0.29 %ID/g, the tissue uptake at 5 min [12] was 0.23 %ID/g and the tissue uptake at 10 min [12] was 0.17 %ID/g. It also gave a tissue uptake at 0.5 min [13] of 0.85 %ID/g, a tissue uptake at 1 min [13] of 2.43 %ID/g and a tissue uptake at 0.05 h [13] of 0.63 %ID/g. It also gave a tissue uptake at 5 min [13] of 0.84 %ID/g, a tissue uptake at 10 min [13] of 0.84 %ID/g and a tissue uptake at 0.5 min [14] of 0.38 %ID/g. The tissue uptake at 1 min [14] was 0.34 %ID/g, the tissue uptake at 0.05 h [14] was 0.32 %ID/g and the tissue uptake at 5 min [14] was 0.25 %ID/g. The tissue uptake at 10 min [14] was 0.2 %ID/g, the tissue uptake at 0.5 min [15] was 1.11 %ID/g and the tissue uptake at 1 min [15] was 1.14 %ID/g. It also gave a tissue uptake at 0.05 h [15] of 0.92 %ID/g, a tissue uptake at 5 min [15] of 0.7 %ID/g and a tissue uptake at 10 min [15] of 0.63 %ID/g.
